IC50 data for 36 compounds are collected here from ChEMBL document CHEMBL1155953, “Synthesis and biological evaluation of C-12' substituted vinflunine derivatives” (Bioorg Med Chem Lett, 2008).

The test relates to A549. Put plainly: Cytotoxicity against human A549 cells by SRB assay. It counts as functional, cell-based. On the technique in general: In SRB staining, fixed cells bind dye roughly in proportion to their protein.
`CC[C@]12C=CCN3CC[C@@]4(c5cc([C@@]6(C(=O)OC)C[C@H]7C[C@@H](C(C)(F)F)CN(Cc8c6[nH]c6ccc(-c9ccoc9)cc86)C7)c(OC)cc5N(C)[C@H]4[C@@](O)(C(=O)OC)[C@@H]1OC(C)=O)[C@@H]32` displayed a half-maximal inhibitory concentration (IC50) of 2280 nM.
`CC[C@]12C=CCN3CC[C@@]4(c5cc([C@@]6(C(=O)OC)C[C@H]7C[C@@H](C(C)(F)F)CN(CCc8c6[nH]c6ccc(C#N)cc86)C7)c(OC)cc5N(C)[C@H]4[C@@](O)(C(=O)OC)[C@@H]1OC(C)=O)[C@@H]32` registered a concentration for half-maximal inhibition (IC50) of 290 nM.
`CC[C@]12C=CCN3CC[C@@]4(c5cc([C@@]6(C(=O)OC)C[C@H]7C[C@@H](C(C)(F)F)CN(Cc8c6[nH]c6ccc(NC(=O)N(C)C)cc86)C7)c(OC)cc5N(C)[C@H]4[C@@](O)(C(=O)OC)[C@@H]1OC(C)=O)[C@@H]32` yielded a half-inhibitory concentration (IC50) of more than 100000 nM.
To `CC[C@]12C=CCN3CC[C@@]4(c5cc([C@@]6(C(=O)OC)C[C@H]7C[C@@H](C(C)(F)F)CN(CCc8c6[nH]c6ccc(C(C)=O)cc86)C7)c(OC)cc5N(C)[C@H]4[C@@](O)(C(=O)OC)[C@@H]1OC(C)=O)[C@@H]32` belongs 4720 nM; to `CCC(=O)c1ccc2[nH]c3c(c2c1)CN1C[C@H](C[C@@H](C(C)(F)F)C1)C[C@]3(C(=O)OC)c1cc2c(cc1OC)N(C)[C@H]1[C@@](O)(C(=O)OC)[C@H](OC(C)=O)[C@]3(CC)C=CCN4CC[C@]21[C@@H]43`, 17400 nM; to `CC[C@]12C=CCN3CC[C@@]4(c5cc([C@@]6(C(=O)OC)C[C@H]7C[C@@H](C(C)(F)F)CN(Cc8c6[nH]c6ccc(C9CC9)cc86)C7)c(OC)cc5N(C)[C@H]4[C@@](O)(C(=O)OC)[C@@H]1OC(C)=O)[C@@H]32`, 120 nM.
For the compound `CCOC(=O)c1ccc2[nH]c3c(c2c1)CN1C[C@H](C[C@@H](C(C)(F)F)C1)C[C@]3(C(=O)OC)c1cc2c(cc1OC)N(C)[C@H]1[C@@](O)(C(=O)OC)[C@H](OC(C)=O)[C@]3(CC)C=CCN4CC[C@]21[C@@H]43`, half-maximal inhibition (IC50) was put at 1030 nM.
To `CCCCc1ccc2[nH]c3c(c2c1)CN1C[C@H](C[C@@H](C(C)(F)F)C1)C[C@]3(C(=O)OC)c1cc2c(cc1OC)N(C)[C@H]1[C@@](O)(C(=O)OC)[C@H](OC(C)=O)[C@]3(CC)C=CCN4CC[C@]21[C@@H]43` belongs 1880 nM.
`CCNC(=S)Nc1ccc2[nH]c3c(c2c1)CN1C[C@H](C[C@@H](C(C)(F)F)C1)C[C@]3(C(=O)OC)c1cc2c(cc1OC)N(C)[C@H]1[C@@](O)(C(=O)OC)[C@H](OC(C)=O)[C@]3(CC)C=CCN4CC[C@]21[C@@H]43`: the IC50 was determined as 5680 nM.
To `CC[C@]12C=CCN3CC[C@@]4(c5cc([C@@]6(C(=O)OC)C[C@H]7C[C@@H](C(C)(F)F)CN(Cc8c6[nH]c6ccc(NC(=O)N9CCOCC9)cc86)C7)c(OC)cc5N(C)[C@H]4[C@@](O)(C(=O)OC)[C@@H]1OC(C)=O)[C@@H]32` belongs more than 100000 nM; to `CC[C@]12C=CCN3CC[C@@]4(c5cc([C@@]6(C(=O)OC)C[C@H]7C[C@@H](C(C)(F)F)CN(Cc8c6[nH]c6ccc(-c9ccc(F)cc9)cc86)C7)c(OC)cc5N(C)[C@H]4[C@@](O)(C(=O)OC)[C@@H]1OC(C)=O)[C@@H]32`, 2560 nM; to `CC[C@]12C=CCN3CC[C@@]4(c5cc([C@@]6(C(=O)OC)C[C@H]7C[C@@H](C(C)(F)F)CN(Cc8c6[nH]c6ccc(-c9ccc(Cl)cc9)cc86)C7)c(OC)cc5N(C)[C@H]4[C@@](O)(C(=O)OC)[C@@H]1OC(C)=O)[C@@H]32`, 1170 nM.
For `CCc1ccc2[nH]c3c(c2c1)CCN1C[C@H](C[C@@H](C(C)(F)F)C1)C[C@]3(C(=O)OC)c1cc2c(cc1OC)N(C)[C@H]1[C@@](O)(C(=O)OC)[C@H](OC(C)=O)[C@]3(CC)C=CCN4CC[C@]21[C@@H]43`, the midpoint of inhibition, the IC50, lay at 920 nM.
The figure for `CC[C@]12C=CCN3CC[C@@]4(c5cc([C@@]6(C(=O)OC)C[C@H]7C[C@@H](C(C)(F)F)CN(CCc8c6[nH]c6ccc(NC(C)=O)cc86)C7)c(OC)cc5N(C)[C@H]4[C@@](O)(C(=O)OC)[C@@H]1OC(C)=O)[C@@H]32` is 41000 nM; for `CC[C@]12C=CCN3CC[C@@]4(c5cc([C@@]6(C(=O)OC)C[C@H]7C[C@@H](C(C)(F)F)CN(Cc8c6[nH]c6ccc(C(=O)C9CC9)cc86)C7)c(OC)cc5N(C)[C@H]4[C@@](O)(C(=O)OC)[C@@H]1OC(C)=O)[C@@H]32` it is 4450 nM; for `CC[C@]12C=CCN3CC[C@@]4(c5cc([C@@]6(C(=O)OC)C[C@H]7C[C@@H](C(C)(F)F)CN(Cc8c6[nH]c6ccc(C(=O)OC(C)C)cc86)C7)c(OC)cc5N(C)[C@H]4[C@@](O)(C(=O)OC)[C@@H]1OC(C)=O)[C@@H]32` it is 3260 nM.
`CC[C@]12C=CCN3CC[C@@]4(c5cc([C@@]6(C(=O)OC)C[C@H]7C[C@@H](C(C)(F)F)CN(Cc8c6[nH]c6ccc(-c9ccc(C#N)cc9)cc86)C7)c(OC)cc5N(C)[C@H]4[C@@](O)(C(=O)OC)[C@@H]1OC(C)=O)[C@@H]32`: the IC50 amounted to 2500 nM.
For `CC[C@]12C=CCN3CC[C@@]4(c5cc([C@@]6(C(=O)OC)C[C@H]7C[C@@H](C(C)(F)F)CN(CCc8c6[nH]c6ccc(NS(C)(=O)=O)cc86)C7)c(OC)cc5N(C)[C@H]4[C@@](O)(C(=O)OC)[C@@H]1OC(C)=O)[C@@H]32`, it took 320 nM to reach half-maximal inhibition (IC50).
To `CC[C@]12C=CCN3CC[C@@]4(c5cc([C@@]6(C(=O)OC)C[C@H]7C[C@@H](C(C)(F)F)CN(Cc8c6[nH]c6ccc(NC(=S)NC9CC9)cc86)C7)c(OC)cc5N(C)[C@H]4[C@@](O)(C(=O)OC)[C@@H]1OC(C)=O)[C@@H]32` belongs 27500 nM.
For the compound `C#Cc1ccc2[nH]c3c(c2c1)CCN1C[C@H](C[C@@H](C(C)(F)F)C1)C[C@]3(C(=O)OC)c1cc2c(cc1OC)N(C)[C@H]1[C@@](O)(C(=O)OC)[C@H](OC(C)=O)[C@]3(CC)C=CCN4CC[C@]21[C@@H]43`, the half-maximal inhibitory concentration (IC50) came to 50 nM.
`CC[C@]12C=CCN3CC[C@@]4(c5cc([C@@]6(C(=O)OC)C[C@H]7C[C@@H](C(C)(F)F)CN(CCc8c6[nH]c6ccc(N9CCCC9)cc86)C7)c(OC)cc5N(C)[C@H]4[C@@](O)(C(=O)OC)[C@@H]1OC(C)=O)[C@@H]32` registered an IC50 of 640 nM.
To `CC[C@]12C=CCN3CC[C@@]4(c5cc([C@@]6(C(=O)OC)C[C@H]7C[C@@H](C(C)(F)F)CN(Cc8c6[nH]c6ccc(-c9ccccc9Cl)cc86)C7)c(OC)cc5N(C)[C@H]4[C@@](O)(C(=O)OC)[C@@H]1OC(C)=O)[C@@H]32` belongs 1010 nM; to `CC[C@]12C=CCN3CC[C@@]4(c5cc([C@@]6(C(=O)OC)C[C@H]7C[C@@H](C(C)(F)F)CN(Cc8c6[nH]c6ccc(-c9ccccc9C(F)(F)F)cc86)C7)c(OC)cc5N(C)[C@H]4[C@@](O)(C(=O)OC)[C@@H]1OC(C)=O)[C@@H]32`, 290 nM.
The figure for `CC[C@]12C=CCN3CC[C@@]4(c5cc([C@@]6(C(=O)OC)C[C@H]7C[C@@H](C(C)(F)F)CN(CCc8c6[nH]c6ccc(C(=O)OC)cc86)C7)c(OC)cc5N(C)[C@H]4[C@@](O)(C(=O)OC)[C@@H]1OC(C)=O)[C@@H]32` is 8730 nM.
Turning to `CC[C@]12C=CCN3CC[C@@]4(c5cc([C@@]6(C(=O)OC)C[C@H]7C[C@@H](C(C)(F)F)CN(CCc8c6[nH]c6ccc(C)cc86)C7)c(OC)cc5N(C)[C@H]4[C@@](O)(C(=O)OC)[C@@H]1OC(C)=O)[C@@H]32`, it took 37 nM to reach half-maximal inhibition (IC50).
The figure for `CC[C@]12C=CCN3CC[C@@]4(c5cc([C@@]6(C(=O)OC)C[C@H]7C[C@@H](C(C)(F)F)CN(Cc8c6[nH]c6ccc(NC(=O)C(F)(F)F)cc86)C7)c(OC)cc5N(C)[C@H]4[C@@](O)(C(=O)OC)[C@@H]1OC(C)=O)[C@@H]32` is 1810 nM.
Compound `CC[C@]12C=CCN3CC[C@@]4(c5cc([C@@]6(C(=O)OC)C[C@H]7C[C@@H](C(C)(F)F)CN(Cc8c6[nH]c6ccc(-c9ccc(F)cc9F)cc86)C7)c(OC)cc5N(C)[C@H]4[C@@](O)(C(=O)OC)[C@@H]1OC(C)=O)[C@@H]32` yielded an IC50 of 1020 nM.
To `CC[C@]12C=CCN3CC[C@@]4(c5cc([C@@]6(C(=O)OC)C[C@H]7C[C@@H](C(C)(F)F)CN(Cc8c6[nH]c6ccc(NC(=O)C(Cl)Cl)cc86)C7)c(OC)cc5N(C)[C@H]4[C@@](O)(C(=O)OC)[C@@H]1OC(C)=O)[C@@H]32` belongs 200 nM; to `CC[C@]12C=CCN3CC[C@@]4(c5cc([C@@]6(C(=O)OC)C[C@H]7C[C@@H](C(C)(F)F)CN(Cc8c6[nH]c6ccc(C(=O)OCc9ccccc9)cc86)C7)c(OC)cc5N(C)[C@H]4[C@@](O)(C(=O)OC)[C@@H]1OC(C)=O)[C@@H]32`, 280 nM.
To `CC[C@]12C=CCN3CC[C@@]4(c5cc([C@@]6(C(=O)OC)C[C@H]7C[C@@H](C(C)(F)F)CN(CCc8c6[nH]c6ccc(-c9ccc(C)cc9)cc86)C7)c(OC)cc5N(C)[C@H]4[C@@](O)(C(=O)OC)[C@@H]1OC(C)=O)[C@@H]32` belongs 560 nM; to `CC[C@]12C=CCN3CC[C@@]4(c5cc([C@@]6(C(=O)OC)C[C@H]7C[C@@H](C(C)(F)F)CN(Cc8c6[nH]c6ccc(NC(=O)OC)cc86)C7)c(OC)cc5N(C)[C@H]4[C@@](O)(C(=O)OC)[C@@H]1OC(C)=O)[C@@H]32`, 420 nM; to `CC[C@]12C=CCN3CC[C@@]4(c5cc([C@@]6(C(=O)OC)C[C@H]7C[C@@H](C(C)(F)F)CN(CCc8c6[nH]c6ccc(-c9ccccc9)cc86)C7)c(OC)cc5N(C)[C@H]4[C@@](O)(C(=O)OC)[C@@H]1OC(C)=O)[C@@H]32`, 2160 nM.
On to `CC[C@]12C=CCN3CC[C@@]4(c5cc([C@@]6(C(=O)OC)C[C@H]7C[C@@H](C(C)(F)F)CN(Cc8c6[nH]c6ccc(-c9ccsc9)cc86)C7)c(OC)cc5N(C)[C@H]4[C@@](O)(C(=O)OC)[C@@H]1OC(C)=O)[C@@H]32`, for which the IC50 is 3000 nM.
The compound `CC[C@]12C=CCN3CC[C@@]4(c5cc([C@@]6(C(=O)OC)C[C@H]7C[C@@H](C(C)(F)F)CN(Cc8c6[nH]c6ccc(NC(N)=O)cc86)C7)c(OC)cc5N(C)[C@H]4[C@@](O)(C(=O)OC)[C@@H]1OC(C)=O)[C@@H]32` came in with an IC50 of more than 100000 nM.
The figure for `CC[C@]12C=CCN3CC[C@@]4(c5cc([C@@]6(C(=O)OC)C[C@H]7C[C@@H](C(C)(F)F)CN(Cc8c6[nH]c6ccc(N=[N+]=[N-])cc86)C7)c(OC)cc5N(C)[C@H]4[C@@](O)(C(=O)OC)[C@@H]1OC(C)=O)[C@@H]32` is 160 nM; for `CC[C@]12C=CCN3CC[C@@]4(c5cc([C@@]6(C(=O)OC)C[C@H]7C[C@@H](C(C)(F)F)CN(Cc8c6[nH]c6ccc(NC(=O)NC)cc86)C7)c(OC)cc5N(C)[C@H]4[C@@](O)(C(=O)OC)[C@@H]1OC(C)=O)[C@@H]32` it is 35100 nM.

What is called IC50 is the concentration needed to halve the response being measured. A lower IC50 goes with inhibition by little substance.
